How the values were obtained:
UNCN3T cells [1] = assay: Mucin secretion (ELLA) in response to inhaled drugs, UNCN3T on Geltrex-coated plastic; format: cell-based, human
Experimental: Wells were then washed three times with phosphate buffered saline (PBS) containing 0.05 % v/v Tween, 0.5 % w/v bovine gelatin type B (Sigma Aldrich), and blocked by incubation with PBS containing 1.0 % w/v gelatin at 37 °C for 1 h. […] Wells with samples from UNC[…] cells were incubated with biotinylated-Helix pomatia agglutinin prepared in the blocking solution. These wells were then washed before incubation with HRP-labelled streptavidin. Finally, plates containing samples from all cell lines were washed repeatedly and developed by the addition of substrate solution which consisted of o-phenylene diamine (Sigma […] tablet) prepared according to manufacturer's instructions, for 3 min at room temperature, after which the reaction was terminated by the addition of 20% (v/v) H2SO4. The absorbance at 492 nm was measured using an Ascent MultiskanTM plate reader (Thermo Fisher Scientific). The absorbance of the samples was compared with known mucin standards, purified by two rounds of density gradient ultracentrifugation, as described by […] et al., from the sputum of a volunteer with chronic obstructive pulmonary disease. Ethical approval was obtained from the University of Brighton School of Pharmacy and Biomolecular Sciences Ethics Committee, under reference PABSREC 0509, and informed consent was obtained from the volunteer.

UNCN3T cells [2] = assay: TEER of UNCN3T cells before and after AMP-PNP; details: AMP-PNP 100 μM
UNCN3T cells [3] = assay: Enhancement of mucin secretion using AMP-PNP (Secretagogue model), ELLA, UNCN3T; format: cell-based, human
Experimental: Cells cultured on inserts were arbitrarily divided into two groups termed 'low mucus' and 'high mucus'. […] Plates were kept on a shock-absorbing foam pad to prevent inadvertent mechanical stimulation of mucin secretion. […] Washes were stored at 4 °C until mucin secretion could be determined using an ELLA (on the day of treatment). At 10, 20 and 30 min, three further washes were performed and the average mucin content used to establish baseline mucin secretion. […] Each AMP-PNP/TB apical solution was changed (“like for like”) at 10-minute intervals. […] Wells were then washed three times with phosphate buffered saline (PBS) containing 0.05 % v/v Tween, 0.5 % w/v bovine gelatin type B (Sigma Aldrich), and blocked by incubation with PBS containing 1.0 % w/v gelatin at 37 °C for 1 h. […] Wells with samples from UNC[…] cells were incubated with biotinylated-Helix pomatia agglutinin prepared in the blocking solution. These wells were then washed before incubation with HRP-labelled streptavidin. Finally, plates containing samples from all cell lines were washed repeatedly and developed by the addition of substrate solution which consisted of o-phenylene diamine (Sigma […] tablet) prepared according to manufacturer's instructions, for 3 min at room temperature, after which the reaction was terminated by the addition of 20% (v/v) H2SO4. The absorbance at 492 nm was measured using an Ascent MultiskanTM plate reader (Thermo Fisher Scientific). The absorbance of the samples was compared with known mucin standards, purified by two rounds of density gradient ultracentrifugation, as described by […] et al., from the sputum of a volunteer with chronic obstructive pulmonary disease. Ethical approval was obtained from the University of Brighton School of Pharmacy and Biomolecular Sciences Ethics Committee, under reference PABSREC 0509, and informed consent was obtained from the volunteer.

Calu-3 cells = assay: Enhancement of mucin secretion using AMP-PNP (Secretagogue model), ELLA, Calu-3; format: cell-based, human; details: Calu-3, AMP-PNP 100 μM, apical
Experimental: Cells cultured on inserts were arbitrarily divided into two groups termed 'low mucus' and 'high mucus'. […] Plates were kept on a shock-absorbing foam pad to prevent inadvertent mechanical stimulation of mucin secretion. […] Washes were stored at 4 °C until mucin secretion could be determined using an ELLA (on the day of treatment). At 10, 20 and 30 min, three further washes were performed and the average mucin content used to establish baseline mucin secretion. […] Each AMP-PNP/TB apical solution was changed (“like for like”) at 10-minute intervals. […] Wells were then washed three times with phosphate buffered saline (PBS) containing 0.05 % v/v Tween, 0.5 % w/v bovine gelatin type B (Sigma Aldrich), and blocked by incubation with PBS containing 1.0 % w/v gelatin at 37 °C for 1 h. […] Wells with samples from UNC[…] cells were incubated with biotinylated-Helix pomatia agglutinin prepared in the blocking solution. These wells were then washed before incubation with HRP-labelled streptavidin. […] The absorbance at 492 nm was measured using an Ascent MultiskanTM plate reader (Thermo Fisher Scientific). The absorbance of the samples was compared with known mucin standards, purified by two rounds of density gradient ultracentrifugation, as described by […] et al., from the sputum of a volunteer with chronic obstructive pulmonary disease. […]

UNCN3T cells [4] = assay: Cytokine release (ELISA) in response to inhaled drugs, UNCN3T
Experimental: SPOC1 or UNCN3T cells were seeded onto 24-well tissue culture treated plates, pre-coated with a 1/20 dilution of Geltrex™. Cells were seeded at 5 × 10^4 cells/well and grown to confluence in the appropriate maintenance medium. The cells were washed four times (20 min per wash) with TB appropriate to each cell line after which the cells were incubated for 30 min at 37 °C 5% CO2/95% air in control or drug solutions prepared in the appropriate transport buffer. […] Samples from UNCN3T cells (human origin) were analysed for IL-6 and IL-8. Cytokines and mucins were quantified using ELISAs (Legend Max, BioLegend San Diego, CA) according to the manufacturer’s instructions and ELLA respectively.

[5] = UNCN3T control wells treated with 100 μM AMP-PNP at 100 min, by 120 min, data not shown

Nc1ncnc2c1ncn2[C@@H]1O[C@H](COP(=O)([O-])OP(=O)([O-])NP(=O)([O-])[O-])[C@@H](O)[C@H]1O.[Li+].[Li+].[Li+].[Li+] [AMP-PNP, adenylyl-imidodiphosphate, tetralithium salt] was tested, and the Mucin secretion (UNCN3T cells [1]; UNCN3T on Geltrex-coated plastic, AMP-PNP 100 μM, 30 min, medium alone 0.94 ± 0.04) was 3.22 ± 0.24 ng/well, the “Effect upon TEER” value (UNCN3T cells [2]) was “no discernible effect” and the “Mean TEER after treatment” value (UNCN3T cells [2]; before treatment 229 ± 20) was 219 ± 19 Ω.cm^2. The “Fold increase in mucin secretion” value (UNCN3T cells [3]; [5]) was 1.5 fold, the “Mucin level after AMP-PNP” value (UNCN3T cells [3]; [5]) was 4.34 ± 0.83 ng/well and the “Fold increase in mucin secretion” value (UNCN3T cells [3]; UNCN3T, AMP-PNP 100 μM, vs baseline) was 2 fold. For the same molecule, the “Mucin level after AMP-PNP” value (UNCN3T cells [3]; UNCN3T, AMP-PNP 100 μM, baseline 2.91 ± 0.92) was 5.44 ± 1.63 ng/well, the “Effect on quantity of mucin secreted” value (Calu-3 cells) was “no significant increase” and the “Effect on quantity of mucin secreted” value (Calu-3 cells; listed as adenylyl-imidodiphosphate) was “not”.

With O=S(=O)([O-])[O-].[O]=[V+2] [VOSO4, Vanadium (IV) oxide sulfate] the “IL-6 release, fold that of culture medium” value (UNCN3T cells [4]) was 66 fold, the IL-6 release (UNCN3T cells [4]; VOSO4 20 μg mL^−1, 30 min, medium alone 1.9 ± 0.3) was 124.0 ± 6.5 pg/mL and the IL-8 release (UNCN3T cells [4]; VOSO4 20 μg mL^−1, 30 min, medium alone 12.5 ± 0.6) was 251.1 ± 14.5 pg/mL.

For CCCC1O[C@@H]2C[C@H]3[C@@H]4CCC5=CC(=O)C=C[C@]5(C)[C@H]4[C@@H](O)C[C@]3(C)[C@]2(C(=O)CO)O1 (some centres unmarked) [budesonide], the “Effect on mucin secretion” value (UNCN3T cells [1]; UNCN3T, inhaled drugs, vs culture medium alone) was “no effect” and the “Effect on IL-8 release” value (UNCN3T cells [4]; 20 μM, 30 min) was “significantly increased”.

— publication PMC8422164, “A comparison of three mucus-secreting airway cell lines (Calu-3, SPOC1 and UNCN3T) for use as biopharmaceutical models of the nose and lung” (European Journal of Pharmaceutics and Biopharmaceutics, 2021)
